The target in one assay is T1, human V1a receptor (Homo sapiens, UniProt P37288).
T1 construct: expressed in transfected cells; host or cells: CHO K1 (ATCC), constitutively expressing a modified aequorin
The assay is described as follows: Cellular in vitro test for determination of the vasopressin receptor activity (aequorin luminescence, CHO cells), human V1a. Particulars: cell line transfected with the human V1a receptor, antagonism of [Arg8]-vasopressin, read-out: IC50 hV1a. The assay is classed as cell-based. An excerpt: (§1) B-1. Cellular In Vitro Test for Determination of the Vasopressin Receptor Activity
(§2) The identification of agonists and antagonists of the V1a- and V2-vasopressin receptors in man and the rat and the quantification of the activity of the compounds according to the invention are effected by means of recombinant cell lines. These cells are originally derived from the ovarian epithelial cells of the hamster (Chinese Hamster Ovary, CHO K1, ATCC: American Type Culture Collection, Manassas, Va. 20108, USA). The test cell lines constitutively express a modified form of the calcium-sensitive photoprotein aequorin, which after reconstitution with the cofactor coelenterazine emits light on an increase in the free calcium concentrations [Rizzuto R, Simpson A W, Brini M, Pozzan T, Nature 358, 325-327 (1992)]. In addition, the cells are stably transfected with human or rat V1a- or V2 receptors. In the case of the Gs-coupled V2 receptors, the cells are stably transfected with a further gene which codes for the promiscuous Gα16-Protein [Amatruda T T, Steele D A, Slepak V Z, Simon M I, Proceedings of the National Academy of Science USA 88, 5587-5591 (1991)]. The resulting vasopressin receptor test cells react to stimulation of the recombinantly expressed vasopressin receptors with an intracellular release of calcium ions, which can be quantified by the resulting aequorin luminescence with a suitable luminometer [Milligan G, Marshall F, Rees S, Trends in Pharmacological Sciences 17, 235-237 (1996)].
(§3) On the day before the text, the cells are plated out in culture medium (DMEM, 10% FCS, 2 mM glutamine, 10 mM HEPES) in 384-well microtitre plates and kept in a cell incubator (96% atmospheric humidity, 5% v/v CO2, 37° C.). On the test day, the culture medium is replaced by a Tyrode solution (140 mM NaCl, 5 mM KCl, 1 mM MgCl2, 2 mM CaCl2, 20 mM glucose, 20 mM HEPES) which in addition contains the cofactor coelenterazine (50 μM), and the microtitre plate is then incubated for a further 3-4 hours. The test substances in various concentrations are placed beforehand in the wells of the microtitre plate for 10 to 20 minutes, before the agonist [Arg^8]-vasopressin is added and the resulting light signal immediately measured in the luminometer. The IC50 values are calculated by means of the computer program GraphPad PRISM (Version 3.02).

The next assay concerns the target T2, human V2 receptor (Homo sapiens, UniProt P30518).
T2 construct: expressed in transfected cells; host or cells: CHO K1 (ATCC), constitutively expressing a modified aequorin and stably co-transfected with promiscuous G-alpha-16
Description: Cellular in vitro test for determination of the vasopressin receptor activity (aequorin luminescence, CHO cells), human V2. Particulars: cell line transfected with the human V2 receptor, antagonism of [Arg8]-vasopressin, read-out: IC50 hV2. The class given is cell-based.
Text: as §1, §2, §3

The values that follow come from patent US8084481B2, “Substituted arylimidazolone and triazolone as inhibitors of vasopressin receptors” (Bayer Pharma Aktiengesellschaft, priority 2006, dated 2011).

As a reminder, the IC50 is the concentration that inhibits the measured activity by half.

T1 sequence (P37288 whole entry): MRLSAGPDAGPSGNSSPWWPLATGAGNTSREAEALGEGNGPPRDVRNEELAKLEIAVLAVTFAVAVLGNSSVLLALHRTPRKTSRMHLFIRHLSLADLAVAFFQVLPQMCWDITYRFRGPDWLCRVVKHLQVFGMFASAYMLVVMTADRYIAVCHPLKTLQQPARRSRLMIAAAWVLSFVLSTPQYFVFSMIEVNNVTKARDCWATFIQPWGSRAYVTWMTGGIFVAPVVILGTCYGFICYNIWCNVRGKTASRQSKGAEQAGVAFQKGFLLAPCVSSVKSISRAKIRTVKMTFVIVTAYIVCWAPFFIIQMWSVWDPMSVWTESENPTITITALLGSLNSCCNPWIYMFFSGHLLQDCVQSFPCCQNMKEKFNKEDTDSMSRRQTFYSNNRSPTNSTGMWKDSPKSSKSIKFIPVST
T2 sequence (P30518 whole entry): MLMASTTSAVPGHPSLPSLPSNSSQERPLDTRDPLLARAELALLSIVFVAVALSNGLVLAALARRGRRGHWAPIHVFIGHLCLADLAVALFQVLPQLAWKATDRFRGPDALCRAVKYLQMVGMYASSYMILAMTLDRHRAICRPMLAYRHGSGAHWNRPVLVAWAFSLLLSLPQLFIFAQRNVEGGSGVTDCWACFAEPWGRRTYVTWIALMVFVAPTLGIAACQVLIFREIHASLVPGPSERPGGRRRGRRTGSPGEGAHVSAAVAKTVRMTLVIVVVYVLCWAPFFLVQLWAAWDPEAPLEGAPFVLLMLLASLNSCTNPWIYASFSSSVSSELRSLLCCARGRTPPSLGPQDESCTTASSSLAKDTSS

In the case of `NC(=O)C(NC(=O)Cn1nc(-c2ccc(Cl)cc2)n(CC(O)C(F)(F)F)c1=O)c1cccc(C(F)(F)F)c1` (stereo not drawn) [Example 509, 2-[3-(4-chlorophenyl)-5-oxo-4-(3,3,3-trifluoro-2-hydroxypropyl)-4,5-dihydro-1H-1,2,4-triazol-1-yl]-N-{2-amino-2-oxo-1-[3-(trifluoromethyl)phenyl]ethyl}-acetamide], the IC50 at human V1a receptor was 8 nM; at human V2 receptor, 4 nM.
In the case of `O=C(Cn1nc(-c2ccc(Cl)cc2)n(CC(O)C(F)(F)F)c1=O)NC(C(=O)NC1CC1)c1cccc(C(F)(F)F)c1` (stereo not drawn) [Example 510, 2-([3-(4-chlorophenyl)-5-oxo-4-(3,3,3-trifluoro-2-hydroxypropyl)-4,5-dihydro-1H-1,2,4-triazol-1-yl]acetylamino)-N-cyclopropyl-2-[3-(trifluoromethyl)phenyl]-acetamide], the IC50 was 4 nM on human V1a receptor and 7 nM at human V2 receptor.
Turning to `O=C(Cn1nc(-c2ccc(Cl)cc2)n(CC(O)C(F)(F)F)c1=O)NC(C(=O)N1CCOCC1)c1cccc(C(F)(F)F)c1` (stereo not drawn) [Example 511, 2-[3-(4-chlorophenyl)-5-oxo-4-(3,3,3-trifluoro-2-hydroxypropyl)-4,5-dihydro-1H-1,2,4-triazol-1-yl]-N-{2-morpholin-4-yl-2-oxo-1-[3-(trifluoromethyl)phenyl]ethyl}-acetamide], the IC50 came to 4 nM at human V1a receptor and 11 nM on human V2 receptor.
